From the Deep4Chem optical property database
“And” between values parts separate entries of the source, which are not always exact repeats. Equal entries are not always repeated. Values belong to the compound of their own block, whether it stands above or below them.

Assay: solvent given as SMILES

SMILES: O=C(O)CCCc1cc(C#Cc2ccccc2)c2ccc3c(C#Cc4ccccc4)cc(C#Cc4ccccc4)c4ccc1c2c34
- emission maximum (in CS(C)=O): 461 nm
- emission maximum (in ClC(Cl)(Cl)Cl): 460 nm

- emission maximum (in C1CCCCC1): 436 nm
- emission maximum (in CC#N): 453 nm
- emission maximum (in CCO): 464 nm
- emission maximum (in ClCCl): 453 nm
SMILES: O=S1(=O)c2ccccc2-c2c1c1ccccc1p2-c1ccccc1 (stereo unspecified)

- emission maximum (in ClCCl): 415 nm
SMILES: COc1ccc2c(c1)c1cc(OC)ccc1c1c2ccc2cccc(C(=O)NC(C)(C)C)c21

- emission maximum (in ClCCl): 695 nm
SMILES: COCCOCCOCN1C(=O)c2ccc3c(-c4ccccc4)c4c5ccc6c7c(ccc(c(-c8ccccc8)c4c4ccc(c2c34)C1=O)c75)C(=O)N(COCCOCCOC)C6=O

SMILES: COCCC1=Cc2nc1ccc1[nH]c(cc1CCOC)c1nc(c(N3C(=O)CCCC3=O)cc3[nH]c2cc3CCOC)C(CCOC)=C1
- emission maximum (in Cc1ccccc1): 646 nm

- emission maximum (in C1CCOC1): 465 nm
SMILES: Cc1cc(C2=C(c3cc(C)sc3C)S(=O)(=O)c3ccccc32)c(C)s1

SMILES: c1ccc(-c2nnc(-c3ccc(N4c5ccccc5N(c5ccccc5)c5ccccc54)cc3)n2-c2ccccc2)cc1
- emission maximum (in Cc1ccccc1): 528 nm
- emission maximum (in c1cc(-n2c3ccccc3c3ccccc32)cc(-n2c3ccccc3c3ccccc32)c1): 520 nm

- emission maximum (in ClCCl): 684 nm
SMILES: CCCCN1C(=O)c2cc(Oc3ccc(C(C)(C)C)cc3)c3c4c(Oc5ccc(C(C)(C)C)cc5)cc5c(=O)n6c(c7cc(Oc8ccc(C(C)(C)C)cc8)c(c8c(Oc9ccc(C(C)(C)C)cc9)cc(c2c38)C1=O)c4c57)=Cc1ccc2ccccc2[n+]1[B-]6(F)F

- emission maximum (in ClC(Cl)Cl): 598 nm and 597 nm
SMILES: COc1ccccc1C1=[N+]2C(=C(c3ccc(I)cc3)c3ccc(-c4ccccc4OC)n3[B-]2(F)F)C=C1

- emission maximum (in ClCCl): 430 nm
SMILES: CC(C)(C)c1ccc(-n2c(-c3ccc(N(c4ccc(-c5ccc(N(c6ccc(-c7nc8c9ccccc9c9ccccc9c8n7-c7ccc(C(C)(C)C)cc7)cc6)c6ccc(-c7nc8c9ccccc9c9ccccc9c8n7-c7ccc(C(C)(C)C)cc7)cc6)cc5)cc4)c4ccc(-c5nc6c7ccccc7c7ccccc7c6n5-c5ccc(C(C)(C)C)cc5)cc4)cc3)nc3c4ccccc4c4ccccc4c32)cc1

- emission maximum (in ClCCl): 423 nm
SMILES: CC(C)c1cccc(C(C)C)c1N1C(=O)c2cccc3c(Oc4ccc(Cl)cc4)ccc(c23)C1=O

- emission maximum (in ClCCl): 484 nm
SMILES: Cc1ccc(N(c2ccccc2)c2ccc3ccc4c(N(c5ccccc5)c5ccc(C)cc5)ccc5ccc2c3c54)cc1

- emission maximum (in ClC(Cl)Cl): 522 nm
SMILES: COc1cc(C=C(C#Cc2ccccc2)C#Cc2ccccc2)c(OC)cc1C=C(C#Cc1ccccc1)C#Cc1ccccc1

- emission maximum (in C1CCCCC1): 383 nm
SMILES: C1=Cc2ccc3ccccc3c2NB1c1ccccc1

- emission maximum (in C1CCOC1): 516 nm
SMILES: FC(F)(F)c1ccc(/C=C2\C=C(c3ccccc3)C=C2c2ccccc2)cc1

- emission maximum (in C1CCCCC1): 343 nm
- emission maximum (in CC#N): 369.45 nm
- emission maximum (in CCCCCC): 339.87 nm
- emission maximum (in CCO): 384 nm
- emission maximum (in O): 392 nm
- emission maximum (in OCC(F)(F)F): 380 nm
SMILES: N#Cc1cccc(N)c1

SMILES: CC1=[N+]2C(=C(c3ccc(C#N)cc3)c3ccc(C)n3[B-]2(F)F)C=C1
- emission maximum (in C1CCCCC1): 539 nm
- emission maximum (in C1CCOC1): 540 nm
- emission maximum (in CC#N): 537 nm
- emission maximum (in CCOC(C)=O): 537 nm
- emission maximum (in CO): 538 nm
- emission maximum (in Cc1ccccc1): 543 nm
- emission maximum (in ClC(Cl)Cl): 543 nm

SMILES: CC(C)(C)c1ccc2c(c1)c1cc(C(C)(C)C)ccc1n2-c1cc(N2c3ccccc3C(c3ccccc3)(c3ccccc3)c3ccccc32)cc(-n2c3ccc(C(C)(C)C)cc3c3cc(C(C)(C)C)ccc32)c1C#N
- emission maximum (in Cc1ccccc1): 458 nm

- emission maximum (in CCCCCCC): 536 nm
SMILES: c1cc2c3c(cccc3c1)-c1c-2c2ccccc2c2ccccc12

- emission maximum (in CC#N): 505 nm
- emission maximum (in O): 545 nm
SMILES: Nc1n[n+]([O-])c2ccccc2[n+]1[O-]

SMILES: C(=C\c1ccc(/C=C/c2ccc(N(c3ccccc3)c3ccccc3)cc2)c2nsnc12)/c1ccc(N(c2ccccc2)c2ccccc2)cc1
- emission maximum (in C1CCOC1): 637 nm
- emission maximum (in CCOC(C)=O): 627 nm
- emission maximum (in CN(C)C=O): 690 nm
- emission maximum (in Cc1ccccc1): 611 nm
- emission maximum (in ClC(Cl)Cl): 651 nm
- emission maximum (in ClCCl): 659 nm

- emission maximum (in C1CCOC1): 395 nm
SMILES: COc1ccc(C(=Cc2ccc(C#N)cc2)c2ccc(OC)cc2)cc1

- emission maximum (in C1CCCCC1): 328 nm
- emission maximum (in CC#N): 348 nm
- emission maximum (in CO): 349 nm
- emission maximum (in O): 350 nm
SMILES: CCOC(=O)COc1ccccc1C(c1c(C)[nH]c2ccccc12)c1c(C)[nH]c2ccccc12

- emission maximum (in ClCCl): 523 nm
SMILES: CCCCCCCCCCCCN1C(=O)c2c(c3ccc4cc(-c5ccc(C=O)cc5)c(OC)cc4c3c3c2ccc2cc(-c4ccc(C=O)cc4)c(OC)cc23)C1=O

- emission maximum (in CC1CCCCC1): 470 nm
- emission maximum (in CC#N): 380 nm
- emission maximum (in CO): 365 nm
SMILES: COC(=O)C(NC(=O)OC(C)(C)C)c1ccc2oc(-c3ccc(O)cc3O)nc2c1 (stereo unspecified)

- emission maximum (in CO): 782 nm
- emission maximum (in O): 779 nm
SMILES: CC1(C)C(/C=C/C=C/C=C/C=C2/N(c3ccc(S(=O)(=O)[O-])cc3)c3ccc(S(=O)(=O)[O-])cc3C2(C)C)=[N+](c2ccc(S(=O)(=O)[O-])cc2)c2ccc(S(=O)(=O)[O-])cc21

- emission maximum (in ClCCl): 557 nm
SMILES: COc1ccc(N(c2ccc(OC)cc2)c2ccc(-c3ccc(-c4ccc5nc6ccccc6c(=O)n5c4)cc3)cc2)cc1

- emission maximum (in ClCCl): 556 nm
SMILES: COc1ccc(/C=C/C2=[O+][B-](F)(F)OC(/C=C/c3ccc(OC)cc3)=C2c2cccc(OC)c2)cc1

- emission maximum (in CC#N): 550 nm
SMILES: COc1ccc(-c2csc(/C(C#N)=C/c3c(Cl)cccc3Cl)n2)cc1

- emission maximum (in CCO): 420 nm
SMILES: Cc1cc(=O)oc2ccc3ccc(-c4cn(Cc5ccccc5)nn4)cc3c12

- emission maximum (in CC#N): 480 nm
SMILES: Cc1ccc(-c2ccc(/C=C/c3ccc(Br)n3C)cn2)nc1

- emission maximum (in ClCCl): 478 nm
SMILES: O=c1c2cc(C#Cc3ccc(Cl)cc3)ccc2nc2ccc(C#Cc3ccc(Cl)cc3)cn12

- emission maximum (in ClCCl): 390 nm
SMILES: COc1ccc(C#Cc2ncc(-c3ccccc3)o2)cc1OC

SMILES: CCCCC1(c2ccccc2)Nc2c(-c3ccc(N(c4ccccc4)c4ccccc4)cc3)ccc(-c3ccc(N(c4ccccc4)c4ccccc4)cc3)c2N=C1c1ccccc1 (stereo unspecified)
- emission maximum (in C1CCOC1): 554 nm
- emission maximum (in CC#N): 567 nm
- emission maximum (in CCCCCC): 521 nm
- emission maximum (in CN(C)C=O): 578 nm
- emission maximum (in Cc1ccccc1): 533 nm
- emission maximum (in ClC(Cl)Cl): 547 nm

- emission maximum (in C1CCOC1): 406 nm
SMILES: C(=C1c2ccccc2CCc2ccccc21)c1ccc(C=C2c3ccccc3CCc3ccccc32)cc1

SMILES: c1ccc(C2CCN3COc4c5ccccc5c5c6c7c(c2c3c46)C(c2ccccc2)CCN7CO5)cc1 (stereo unspecified)
- emission maximum (in C1CCCCC1): 535 nm
- emission maximum (in C1CCOC1): 583 nm
- emission maximum (in C1COCCO1): 577 nm
- emission maximum (in CC#N): 610 nm
- emission maximum (in CC(C)=O): 603 nm
- emission maximum (in CCOC(C)=O): 584 nm
- emission maximum (in CCOCC): 562 nm
- emission maximum (in CN(C)C=O): 612 nm
- emission maximum (in CO): 598 nm
- emission maximum (in CS(C)=O): 618 nm
- emission maximum (in Cc1ccccc1): 565 nm
- emission maximum (in ClC(Cl)Cl): 596 nm
- emission maximum (in ClCCl): 600 nm

- emission maximum (in ClCCl): 400 nm
SMILES: CCCCC(CC)Cn1c2cc(C#N)ccc2c2ccc(C#Cc3ccc4ccc5c(C#Cc6ccc7c8ccc(C#N)cc8n(CC(CC)CCCC)c7c6)ccc6ccc3c4c65)cc21 (stereo unspecified)

- emission maximum (in CS(C)=O): 417 nm
SMILES: O=c1c2cc(S(=O)(=O)Cl)ccc2[nH]c2ccc(S(=O)(=O)Cl)cc12

- emission maximum (in C1COCCO1): 428 nm
- emission maximum (in CC#N): 458 nm
- emission maximum (in CC(C)O): 480 nm
- emission maximum (in CCO): 489 nm
- emission maximum (in CCOC(C)=O): 433 nm
- emission maximum (in CN(C)C=O): 452 nm
- emission maximum (in CO): 498 nm
- emission maximum (in CS(C)=O): 450 nm
- emission maximum (in OCC(O)CO): 404 nm
- emission maximum (in OCCO): 493 nm
SMILES: Nc1c(-c2nn([C@H]3C[C@H](O)[C@@H](CO)O3)c3ncnc(N)c23)ccc2ccccc12

- emission maximum (in CC#N): 381 nm
SMILES: Cc1sc(Cl)cc1-c1nc(-c2ccccc2)[nH]c1-c1cc(Cl)sc1C

- emission maximum (in ClCCl): 401 nm
SMILES: COC(=O)c1c(-c2cc3ccccc3oc2=O)nn(-c2ccc(Br)cc2)c1C(=O)OC

SMILES: CC(C)(C)c1ccc2c(c1)c1cc(C(C)(C)C)ccc1n2-c1ccc2c(c1)C(=O)c1ccc(-n3c4ccc(C(C)(C)C)cc4c4cc(C(C)(C)C)ccc43)cc1C2=O
- emission maximum (in Cc1ccccc1): 602 nm
- emission maximum (in c1ccc2c(c1)c1ccccc1n2-c1ccc(-c2ccc(-n3c4ccccc4c4ccccc43)cc2)cc1): 575 nm

- emission maximum (in ClC(Cl)Cl): 714 nm
- emission maximum (in ClCCl): 714 nm
SMILES: COc1ccc(C2=[N+]3C(=Nc4c(-c5ccccc5)c(Br)c(-c5ccc(OC)cc5)n4[B-]3(F)F)C(c3ccccc3)=C2Br)cc1

- emission maximum (in CCO): 586 nm
SMILES: CCOC(=O)c1cc(C(=O)NCc2ccccc2)c2ccc(N(C)C)cc2n1

- emission maximum (in ClC(Cl)Cl): 793 nm
SMILES: CC(C)(C)c1ccc(C2=c3sc(-c4ccc(C(C)(C)C)cc4)cc3=[N+]3C2=Nc2c(-c4ccc(C(C)(C)C)cc4)c4sc(-c5ccc(C(C)(C)C)cc5)cc4n2[B-]3(F)F)cc1

SMILES: COc1ccc(/C=C/c2cc(/C=C/c3ccc(N(c4ccccc4)c4ccccc4)cc3)nc(/C=C/c3ccc(N(C)C)cc3)n2)cc1
- emission maximum (in C1CCOC1): 436 nm
- emission maximum (in CC#N): 463 nm
- emission maximum (in CC(C)=O): 452 nm
- emission maximum (in CCCCCCC): 398 nm
- emission maximum (in CS(C)=O): 485 nm
- emission maximum (in Cc1ccccc1): 411 nm
- emission maximum (in ClCCl): 548 nm

SMILES: N#Cc1ccc(N(c2ccc(C#N)cc2)c2ccc3c4cccc5c(N(c6ccc(C#N)cc6)c6ccc(C#N)cc6)ccc(c6cccc2c63)c54)cc1
- emission maximum (in C1CCCCC1): 494 nm
- emission maximum (in C1CCOC1): 531 nm
- emission maximum (in CC#N): 535 nm
- emission maximum (in Cc1ccccc1): 513 nm
- emission maximum (in ClCCl): 522 nm

- emission maximum (in ClCCl): 571 nm
SMILES: CC1=C(Br)C(C)=[N+]2C1=C(c1c(-c3ccccn3)nc3ccccn13)c1c(C)c(Br)c(C)n1[B-]2(F)F

- emission maximum (in ClC(Cl)Cl): 527 nm
SMILES: CCCCc1ccc(-n2c3c4cc(F)ccc4nc(-c4ccc(OC)cc4)c3c3c2c2c(-c4ccc(OC)cc4)nc4ccc(F)cc4c2n3-c2ccc(CCCC)cc2)cc1

- emission maximum (in ClCCl): 426 nm
SMILES: N#Cc1ccc(C2=Cc3ccccc3P2(=O)c2ccccc2)cc1 (stereo unspecified)
